Test results reported in publication PMC7064328 (Environmental Health Perspectives, 2020).
Where “and” joins values, the source holds several entries; their conditions need not be identical. Equal entries are not always repeated.

Columns and labels:
[1] = Internal dosimetry of PFOA and GenX in maternal serum, maternal liver, amniotic fluid and whole embryos (UPLC-MS/MS); type: in vivo, mouse (CD-1)
Description: Solid tissues were homogenized in RODI water at a ratio of approximately 1:3 tissue mass (milligrams) to liquid volume (microliters). Maternal serum, amniotic fluid, and tissue homogenates ( 25μL ) were spiked with internal standard suspended in 0.1M formic acid in a denaturation step, followed by a subsequent protein crash using ice-cold acetonitrile. Samples were vortex mixed after addition of formic acid and acetonitrile and then centrifuged at 10,000×g for 5 min. Extract supernatants were separated using a Waters ACQUITY UPLC® (Waters Corporation) fitted with a Waters ACQUITY UPLC® BEH C18 Column ( 130Å; 1.7μm; 2.1mm×50mm ). Detection was performed using a Waters Quattro Premier™ XE tandem quadrupole mass spectrometer in negative ionization mode.

placenta = test: Placental histopathology; type: in vivo, mouse (CD-1)
Description: Dam livers, kidneys, and placentas were trimmed and embedded by the NIEHS Mouse Embryo Phenotyping Core. Tissues collected at necropsy were fixed in 4% PFA for 72 h and paraffin embedded, and 5-μm sections were prepared and stained with hematoxylin and eosin (H&E). Pathology was evaluated and a pathology review conducted by S.A.E. Diplomate American College of Veterinary Pathologists (DACVP). Pathology reviews were conducted as an informed approach analysis [e.g., nonblinded analysis; see Sills et al. ([2019])]. Select tissue slides were scanned using the AT2 Scanner (Aperio). Images were then captured for publication using the ImageScope software; version 12.3.0.5056 (Aperio). Serum and urine obtained from dams in Block 2 were analyzed using the AU480 clinical chemistry analyzer (Beckman Coulter Inc.). Reagents and calibration standards used to measure alkaline phosphatase (ALP), alanine aminotransferase (ALT), aspartate aminotransferase (AST), blood urea nitrogen (BUN), serum creatinine, urine creatinine, glucose (Glu), total protein (TP), triglyceride (Trig), high-density lipoprotein (HDL), cholesterol (Chol), and albumin (ALB) were purchased from Beckman Coulter Inc. Reagents for sorbitol dehydrogenase (SDH), total bile acid (TBA), and micro-TP were purchased from Sekisui Diagnostics. The reagent used to measure low-density lipoprotein (LDL) was purchased form Diazyme Laboratories.
Histopathological lesions of evaluated placenta were evaluated using two statistical approaches. The first approach assumed the absence of litter effects and considered each placenta evaluated within a treatment group to be a totally independent observation, regardless of its litter of origin. […] The second approach considered the litter as the biological unit and compared the relative incidence of placental lesions [e.g., percent within normal limits (WNL)] to adjust for differences in the total number of observations across litters within and between treatment groups. […] Both approaches were subjected to simultaneous tests for general linear hypotheses to correct for multiple comparisons using Tukey contrasts in the package multcomp ([Hothorn et al. 2009]).

## O=C(O)C(F)(F)C(F)(F)C(F)(F)C(F)(F)C(F)(F)C(F)(F)C(F)(F)F [PFOA, Perfluorooctanoic acid]
[1]; E11.5, 1 mg/kg/d
  Amniotic fluid concentration: 4.6 ± 2.8 µg/mL
  Maternal liver concentration: 48.3 ± 12.5 µg/g
  Maternal serum concentration: 25.4 ± 3.7 µg/mL
  Whole embryo concentration: 0.80 ± 0.10 µg/g
[1]; E11.5, 5 mg/kg/d
  Amniotic fluid concentration: 8.8 ± 2.7 µg/mL
  Maternal liver concentration: 151.5 ± 18.5 µg/g
  Maternal serum concentration: 117.3 ± 20.6 µg/mL
  Whole embryo concentration: 2.34 ± 0.27 µg/g and 2.34 ± 0.3 µg/g
[1]; E17.5, 1 mg/kg/d
  Female embryo concentration: 5.78 ± 0.81 µg/g
  Male embryo concentration: 5.78 ± 0.82 µg/g
  Maternal liver concentration: 181.1 ± 46.0 µg/g
  Maternal serum concentration: 18.7 ± 3.2 µg/mL
  Whole embryo concentration: 5.78 ± 0.71 µg/g
[1]; E17.5, 5 mg/kg/d
  Female embryo concentration: 16.1 ± 2.75 µg/g
  Male embryo concentration: 16.9 ± 1.88 µg/g
  Maternal liver concentration: 159.2 ± 21.7 µg/g
  Maternal serum concentration: 95.1 ± 14.1 µg/mL
  Whole embryo concentration: 16.4 ± 1.75 µg/g
[1]; by E17.5, regardless of PFOA dose group
  Maximum bioaccumulation in maternal liver: 160–180 μg PFOA/g liver
placenta; E11.5, 1 mg/kg/d
  Early fibrin clot: %: 0%
  Early fibrin clot: No.: 0
  Labyrinth atrophy: %: 0%
  Labyrinth atrophy: No.: 0
  Labyrinth congestion: %: 0%
  Labyrinth congestion: No.: 0
  Labyrinth necrosis: %: 0%
  Labyrinth necrosis: No.: 0
  Mean WNL per litter (%): 98.0%
  Mean WNL ± SD per litter: 6.4 ± 1.9
  Mean abnormal per litter (%): 2.0%
  Mean abnormal ± SD per litter: 0.2 ± 0.4
  Other placental lesions: %: 3.0%
  Other placental lesions: No.: 1
  Placental nodule: %: 0%
  Placental nodule: No.: 0
  Placentas WNL: %: 97.0%
  Placentas WNL: No.: 32
  Placentas abnormal: %: 3.0%
  Placentas abnormal: No.: 4
placenta; E11.5, 5 mg/kg/d
  Early fibrin clot: %: 0%
  Early fibrin clot: No.: 0
  Labyrinth atrophy: %: 8.3%
  Labyrinth atrophy: No.: 3
  Labyrinth congestion: %: 0%
  Labyrinth congestion: No.: 0
  Labyrinth necrosis: %: 2.7%
  Labyrinth necrosis: No.: 1
  Mean WNL per litter (%): 88.3%
  Mean WNL ± SD per litter: 6.4 ± 1.7
  Mean abnormal per litter (%): 11.7%
  Mean abnormal ± SD per litter: 1.0 ± 1.4
  Other placental lesions: %: 0%
  Other placental lesions: No.: 0
  Placental nodule: %: 0%
  Placental nodule: No.: 0
  Placentas WNL: %: 88.9%
  Placentas WNL: No.: 32
  Placentas abnormal: %: 11.1%
  Placentas abnormal: No.: 4
placenta; E17.5, 1 mg/kg/d
  Early fibrin clot: %: 0%
  Early fibrin clot: No.: 0
  Labyrinth atrophy: %: 0%
  Labyrinth atrophy: No.: 0
  Labyrinth congestion: %: 0%
  Labyrinth congestion: No.: 0
  Labyrinth necrosis: %: 3.1%
  Labyrinth necrosis: No.: 1
  Mean WNL per litter (%): 91.4%
  Mean WNL ± SD per litter: 5.8 ± 1.3
  Mean abnormal per litter (%): 8.6%
  Mean abnormal ± SD per litter: 0.6 ± 0.9
  Other placental lesions: %: 0%
  Other placental lesions: No.: 0
  Placental nodule: %: 6.3%
  Placental nodule: No.: 2
  Placentas WNL: %: 90.6%
  Placentas WNL: No.: 29
  Placentas abnormal: %: 9.4%
  Placentas abnormal: No.: 3
placenta; E17.5, 5 mg/kg/d
  Early fibrin clot: %: 2.5%
  Early fibrin clot: No.: 1
  Labyrinth atrophy: %: 7.5%
  Labyrinth atrophy: No.: 3
  Labyrinth congestion: %: 57.5%
  Labyrinth congestion: No.: 23
  Labyrinth necrosis: %: 0%
  Labyrinth necrosis: No.: 0
  Mean WNL per litter (%): 38.1%
  Mean WNL ± SD per litter: 2.2 ± 2.7
  Mean abnormal per litter (%): 61.9%
  Mean abnormal ± SD per litter: 4.5 ± 3.8
  Other placental lesions: %: 0%
  Other placental lesions: No.: 0
  Placental nodule: %: 0%
  Placental nodule: No.: 0
  Placentas WNL: %: 32.5%
  Placentas WNL: No.: 13
  Placentas abnormal: %: 67.5%
  Placentas abnormal: No.: 27
placenta; this study
  Lowest dose tested resulting in adverse placental pathology: 5 mg/kg/d
